The values below come from patent publication US7094423B1, “Methods for preparation of lipid-encapsulated therapeutic agents” (INEX Pharmaceuticals Corp., priority 1999, dated 2006).

The data set can be described thus: Trapping efficiency of oligonucleotide in liposomes after anion exchange chromatography. Format: physicochemical. Here is the method: Entrapment procedure. […] At pH 7.5 DODAP becomes charge-neutral and oligonucleotides bound to the external membrane surface are released from their association with the cationic lipid. Unencapsulated oligonucleotides were subsequently removed by anion exchange chromatography on DEAE-sepharose CL-6B columns equilibrated in HBS pH 7.5. When octylglucoside was used in place of ethanol the detergent was added to liposomes (1:1 v/v) to final concentrations ranging from 30–40 mM. All the subsequent steps were performed as described above except for the initial dialysis step against pH 4 citrate buffer, which was extended to 5 hrs. In the following examples, if not otherwise mentioned, DSPC/Chol/PEG-CerC14/DODAP liposomes (20:45:10:25 mol %), c-myc (Seq. ID No. 1), 40% (v/v) ethanol, 300 mM citrate buffer and incubation at 40° C. were used.
Determination of trapping efficiencies: Trapping efficiencies were determined after removal of external oligonucleotides by anion exchange chromatography. Oligonucleotide concentrations were determined by UV-spectroscopy on a Shimadzu UV160U spectrophotometer. The absorbance at 260 nm was measured after solubilization of the samples in chloroform/methanol at a volume ratio of 1:2.1:1 chloroform/methanol/aqueous phase (sample/HBS). If the solution was not completely clear after mixing an additional 50–100 μl of methanol was added. Alternatively, absorbance was read after solubilization of the samples in 100 mM octylglucoside. The antisense concentrations were calculated according to: c [μg/μl]=A260*1 OD260 unit [μg/μl]*dilution factor [μg/μl], where the dilution factor is given by the total assay volume […] divided by the sample volume [μl]. OD260 units were calculated from pairwise extinction coefficients for individual deoxy-nucleotides, which take into account nearest neighbor interactions. 1OD corresponds to 30.97 μg/ml c-myc (Seq. ID. No 1), 33.37 μg/ml h-ICAM-1 (Seq. ID No. 2) and 34 μg/ml EGFR (Seq. ID No. 3). Lipid concentrations were determined by the inorganic phosphorus assay after separation of the lipids from the oligonucleotides by a Bligh and Dyer extraction (Bligh and Dyer, 1959). Briefly, to 250 μl of aqueous phase (sample/HBS) 525 μl methanol and 250 μl chloroform were added to form a clear single phase (aqueous phase/methanol/chlorofrom 1:2.1:1 vol). If the solution was not clear a small amount of methanol was added. Subsequently, 250 μl HBS and an equal volume of chloroform were added. The samples were mixed and centrifuged for 5–10 min at 3000 rpm. […] The chloroform phase was assayed for phospholipid content according to the method of Fiske and Subbarrow (1925). If not otherwise mentioned, trapping efficiencies were expressed as oligonucleotide-to-lipid weight ratios [w/w].

“And” between values parts separate entries of the source, which are not always exact repeats. Identical values can stand only once.

With “5′-TAACGTTGAGGGGCAT-3′ (listed as DNA, chemistry not given here) [INX-6295]”, the “% encapsulation” value is 45% and 45.7% (2.5 mol % PEG-CerC14, 40% ethanol, initial oligonucleotide-to-lipid 0.037 mol/mol, listed as c-myc); 50.9% (5 mol % PEG-CerC14, 40% ethanol, initial oligonucleotide-to-lipid 0.037 mol/mol); 5% (10 mol % PEG-CerC14, 25% ethanol, initial oligonucleotide-to-lipid 0.037 mol/mol, listed as c-myc); 60% and 56.5% (10 mol % PEG-CerC14, 40% ethanol, initial oligonucleotide-to-lipid 0.037 mol/mol, listed as c-myc); 4.4% (DSPC/Chol/DODAP liposomes (no modified lipid), 0% EtOH [v/v], molar ODN/lipid 0.035, pH 4); 20.5% (DSPC/Chol/DODAP liposomes (no modified lipid), 20% EtOH [v/v], molar ODN/lipid 0.035, pH 4). The “% encapsulation” value was 32.5% (DSPC/Chol/DODAP liposomes (no modified lipid), 30% EtOH [v/v], molar ODN/lipid 0.035, pH 4); 51% (OGP 30 mM in place of ethanol, DSPC/Chol/DODAP/PEG-CerC14 20/45/25/10 mol %, initial oligonucleotide-to-lipid 0.23 mg/mg); 57% (OGP 35 mM in place of ethanol, DSPC/Chol/DODAP/PEG-CerC14 20/45/25/10 mol %, initial oligonucleotide-to-lipid 0.23 mg/mg); 55% (OGP 40 mM in place of ethanol, DSPC/Chol/DODAP/PEG-CerC14 20/45/25/10 mol %, initial oligonucleotide-to-lipid 0.23 mg/mg). Besides, for the setting “10 mol % PEG-CerC14 liposomes, initial antisense-to-lipid weight ratio 0.29”, the final antisense-to-lipid ratio was 0.16. For the same substance, the “oligonucleotide molecules per 100 nm liposome” value (at maximum entrapment) is on record as “approximately 2250”.
